test system: 9His-cgLAAO1; test: coupled peroxidase/o-dianisidine assay, Hanes-Woolf; assay type: biochemical, Colletotrichum gloeosporioides; conditions: 50 mM TEA/HCl pH 7.0, 30 °C

`NC(=O)CC[C@H](N)C(=O)O` [L-glutamine] and `CSCC[C@H](N)C(=O)O` [L-methionine] are within error of each other in Km: 760 ± 100 µM for the first, 1060 ± 500 µM for the second.

Going from `COC(=O)[C@@H](N)CC(C)C` [L-leucine methyl ester] to `CC(C)C[C@H](N)C(=O)O` [L-leucine], the Km falls from 12900 ± 300 µM to 1200 ± 200 µM (11-fold).

Work on `N[C@@H](Cc1ccccc1)C(=O)O` [L-phenylalanine] yielded a Km of 320 ± 30 µM.

Reference: PMC8364938 (MicrobiologyOpen, 2021)
